Measured values taken from the supplement of paper PMC11208160.

assay: recombinant UMI read abundance after kanamycin selection (control-corrected) (log10(CPM+1)); higher = more efficient recombination; extreme values may be limits of the assay; sequences stand for … in AGTGCAGAGAAAATCGGCCAGTTTTCTCTGCCTGCAGTCCGCATGCCGTGGGACCCCTTGGGTTCTAACCTGTTGCCTAGATTTATGCAGCGGACTGCCTTTCTCCCAAAGTGATAAACCGG…AGGTTGGTTTCACT; site = the 11-nt donor
How it was run: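 Two replicates each of selected and unselected plating were used in this pooled Escherichia coli screen of donor and donor-binding-loop pairs for the IS621 bridge recombinase. Selection was with IPTG (0.07 mM) and kanamycin. Counts of recombinant UMIs, amplified across the donor–target junction, were converted to CPM, averaged, scaled by control-derived factors and reported as log10(CPM+1).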
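Also: IS621 bridge recombinase in Escherichia coli cells against a fixed T5 target plasmid.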

| Sequence | recombinant UMI read abundance (log10) |
| --- | --- |
| TTCTCTTCATGGACCGGTTTTCCCGGTAATCCGTATTTGTG (site TTCTCTTCTCA) | 0.00971 |
| TTCTGGGCATGGACCGGTTTTCCCGGTAATCCGTATTTGCA (site TTCTGGGCTTG) | 0.345 |
| TTCTGTCCATGGACCGGTTTTCCCGGTAATCCGTATTTGCG (site TTCTGTCCTCG) | 0.00535 |
| TTCTTCCCATGGACCGGTTTTCCCGGTAATCCGTATTTGGC (site TTCTTCCCTGC) | 0 |
| TTCTTGACATGGACCGGTTTTCCCGGTAATCCGTATTTGCT (site TACTTGACTAG) | 0.126 |
| TTCTTGACATGGACCGGTTTTCCCGGTAATCCGTATTTGCT (site TCCTTGACTAG) | 0.513 |
| TTCTTGACATGGACCGGTTTTCCCGGTAATCCGTATTTGCT (site TGCTTGACTAG) | 0 |
| TTCTTGACATGGACCGGTTTTCCCGGTAATCCGTATTTGCT (site TTCTTGACTAG) | 0.68 |
| TTGAACACATGGACCGGTTTTCCCGGTAATCCGTATTTGAC (site TTGAACACTGT) | 0.849 |
| TTGAATACATGGACCGGTTTTCCCGGTAATCCGTATTTGCA (site TAGAATACTTG) | 1.77 |
| TTGAATACATGGACCGGTTTTCCCGGTAATCCGTATTTGCA (site TCGAATACTTG) | 0 |
| TTGAATACATGGACCGGTTTTCCCGGTAATCCGTATTTGCA (site TGGAATACTTG) | 0 |
| TTGAATACATGGACCGGTTTTCCCGGTAATCCGTATTTGCA (site TTGAATACTTG) | 0.467 |
| TTGACAACATGGACCGGTTTTCCCGGTAATCCGTATTTGAC (site TTGACAACTGT) | 1.62 |
| TTGACTCCATGGACCGGTTTTCCCGGTAATCCGTATTTGCT (site TTGACTCCTAG) | 0.111 |
| TTGAGCACATGGACCGGTTTTCCCGGTAATCCGTATTTGGA (site TTGAGCACTTC) | 0.207 |
| TTGCATGCATGGACCGGTTTTCCCGGTAATCCGTATTTGGT (site ATGCATGCTAC) | 0.00895 |
| TTGCATGCATGGACCGGTTTTCCCGGTAATCCGTATTTGGT (site CTGCATGCTAC) | 0.00328 |
| TTGCATGCATGGACCGGTTTTCCCGGTAATCCGTATTTGGT (site GTGCATGCTAC) | 0.0185 |

| Sequence | recombinant UMI read abundance (log10) |
| --- | --- |
| TTGCATGCATGGACCGGTTTTCCCGGTAATCCGTATTTGGT (site TTGCATGCTAC) | 0.317 |
| TTGCGGGCATGGACCGGTTTTCCCGGTAATCCGTATTTGTC (site TTGCGGGCTGA) | 2.15 |
| TTGCTACCATGGACCGGTTTTCCCGGTAATCCGTATTTGAA (site TTGCTACCTTT) | 0.0119 |
| TTGCTCACATGGACCGGTTTTCCCGGTAATCCGTATTTGTC (site TTGCTCACTGA) | 2.25 |
| TTGCTGACATGGACCGGTTTTCCCGGTAATCCGTATTTGCG (site TTGCTGACTCG) | 1.33 |
| TTGCTGACATGGACCGGTTTTCCCGGTAATCCGTATTTGTG (site TTGCTGACTCA) | 0.12 |
| TTGGAAACATGGACCGGTTTTCCCGGTAATCCGTATTTGCA (site ATGGAAACTTG) | 0 |
| TTGGAAACATGGACCGGTTTTCCCGGTAATCCGTATTTGCA (site CTGGAAACTTG) | 1.21 |
| TTGGAAACATGGACCGGTTTTCCCGGTAATCCGTATTTGCA (site GTGGAAACTTG) | 0.342 |
| TTGGAAACATGGACCGGTTTTCCCGGTAATCCGTATTTGCA (site TTGGAAACTTG) | 1.86 |
| TTGGAGCCATGGACCGGTTTTCCCGGTAATCCGTATTTGAC (site TTGGAGCCTGT) | 1.31 |
| TTGGCCACATGGACCGGTTTTCCCGGTAATCCGTATTTGGA (site TTGGCCACTTC) | 0.146 |
| TTGGCGTCATGGACCGGTTTTCCCGGTAATCCGTATTTGTC (site TTGGCGTCTGA) | 1.13 |
| TTGGTATCATGGACCGGTTTTCCCGGTAATCCGTATTTGAC (site TTGGTATCTGT) | 2.59 |
| TTGTACCCATGGACCGGTTTTCCCGGTAATCCGTATTTGGT (site TTGTACCCTAC) | 0.111 |
| TTGTATACATGGACCGGTTTTCCCGGTAATCCGTATTTGGG (site TTGTATACTCC) | 0.00305 |
| TTGTGATCATGGACCGGTTTTCCCGGTAATCCGTATTTGTG (site TTGTGATCTCA) | 1.25 |
| TTGTGGACATGGACCGGTTTTCCCGGTAATCCGTATTTGTA (site TTGTGGACTTA) | 1.6 |
